Source: ChEMBL document CHEMBL1139763, “Pyrrolidines as potent functional agonists of the human melanocortin-4 receptor” (Bioorg Med Chem Lett, 2007)
pEC50, pKi: −log10 of the molar value.

Key:
Melanocortin receptor 4 [1] = target: T1, Melanocortin receptor 4 (Homo sapiens, UniProt P32245); assay: Displacement of [125I]NDP-MSH from human MC4R expressed in HEK293 cells; format: cell-based
Melanocortin receptor 4 [2] = target: T1, Melanocortin receptor 4; assay: Intrinsic activity at human MC4R expressed in HEK293 cells assessed as cAMP accumulation relative to alphaMSH; format: functional, cell-based
Melanocortin receptor 4 [3] = target: T1, Melanocortin receptor 4; assay: Agonist activity at human MC4R expressed in HEK293 cells assessed as cAMP accumulation; format: functional, cell-based

T1 sequence (P32245 whole entry): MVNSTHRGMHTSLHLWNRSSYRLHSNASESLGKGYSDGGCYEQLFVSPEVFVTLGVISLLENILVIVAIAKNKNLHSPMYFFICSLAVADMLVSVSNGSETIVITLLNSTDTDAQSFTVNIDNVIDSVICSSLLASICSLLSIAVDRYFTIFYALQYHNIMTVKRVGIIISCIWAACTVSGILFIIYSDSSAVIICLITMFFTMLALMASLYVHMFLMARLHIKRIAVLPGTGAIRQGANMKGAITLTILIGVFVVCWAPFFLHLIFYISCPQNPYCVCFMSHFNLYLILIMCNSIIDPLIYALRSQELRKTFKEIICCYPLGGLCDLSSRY

CC(C)N1C[C@@H](C(=O)N2CCN(c3ccccc3CNCCN)CC2)[C@H](c2ccc(Cl)cc2)C1
pKi (Melanocortin receptor 4 [1]): 6.64

CCN(CC)Cc1ccccc1N1CCN(C(=O)[C@@H]2CN(C(C)C)C[C@H]2c2ccc(Cl)cc2)CC1
pKi (Melanocortin receptor 4 [1]): 5.92

CC(C)N1C[C@@H](C(=O)N2CCN(c3ccccc3CN3CCC(N)CC3)CC2)[C@H](c2ccc(Cl)cc2)C1
pKi (Melanocortin receptor 4 [1]): 7.04 | Intrinsic activity (Melanocortin receptor 4 [2]): 40% | pEC50 (Melanocortin receptor 4 [3]): 6.41

CC(C)N1C[C@@H](C(=O)N2CCN(c3ccccc3CNC3CCNCC3)CC2)[C@H](c2ccc(Cl)cc2)C1
pKi (Melanocortin receptor 4 [1]): 6.72

CC(C)C[C@H](NS(C)(=O)=O)c1cc(C(F)(F)F)ccc1N1CCN(C(=O)[C@@H]2CN(C(C)C)C[C@H]2c2ccc(Cl)cc2)CC1
pKi (Melanocortin receptor 4 [1]): 7.06 | Intrinsic activity (Melanocortin receptor 4 [2]): 96% | pEC50 (Melanocortin receptor 4 [3]): 6.35

COc1ccccc1N1CCN(C(=O)[C@@H]2CN(C(C)C)C[C@H]2c2ccc(Cl)cc2)CC1
pKi (Melanocortin receptor 4 [1]): 6.28

CC(C)N1C[C@@H](C(=O)N2CCN(c3ccccc3Cn3cccn3)CC2)[C@H](c2ccc(Cl)cc2)C1
pKi (Melanocortin receptor 4 [1]): 6.31

CC(C)N1C[C@@H](C(=O)N2CCN(c3ccccc3CNc3cccnc3)CC2)[C@H](c2ccc(Cl)cc2)C1
pKi (Melanocortin receptor 4 [1]): 5.80

CC(C)N1C[C@@H](C(=O)N2CCN(c3ccccc3Cn3cnnc3)CC2)[C@H](c2ccc(Cl)cc2)C1
pKi (Melanocortin receptor 4 [1]): 6.24

CC(C)CN(Cc1ccccc1N1CCN(C(=O)[C@@H]2CN(C(C)C)C[C@H]2c2ccc(Cl)cc2)CC1)CC(C)C
pKi (Melanocortin receptor 4 [1]): 5.96

CC(C)N1C[C@@H](C(=O)N2CCN(c3ccccc3CN3CCCC3)CC2)[C@H](c2ccc(Cl)cc2)C1
pKi (Melanocortin receptor 4 [1]): 6.26

CC(C)C[C@H](NC(=O)[C@H](C)N)c1cc(C(F)(F)F)ccc1N1CCN(C(=O)[C@@H]2CN(C(C)C)C[C@H]2c2ccc(Cl)cc2)CC1
pKi (Melanocortin receptor 4 [1]): 7.33 | Intrinsic activity (Melanocortin receptor 4 [2]): 104% | pEC50 (Melanocortin receptor 4 [3]): 6.68

CC(C)N1C[C@@H](C(=O)N2CCN(c3ccccc3CNS(C)(=O)=O)CC2)[C@H](c2ccc(Cl)cc2)C1
pKi (Melanocortin receptor 4 [1]): 5.77

Cc1ccc(N2CCN(C(=O)[C@@H]3CN(C(C)C)C[C@H]3c3ccc(Cl)cc3)CC2)c([C@@H](NC(=O)CCN(C)C)C(C)C)c1
pKi (Melanocortin receptor 4 [1]): 8.33 | Intrinsic activity (Melanocortin receptor 4 [2]): 102% | pEC50 (Melanocortin receptor 4 [3]): 7.80

CC(C)N1C[C@@H](C(=O)N2CCN(c3ccccc3CNc3ccccc3N)CC2)[C@H](c2ccc(Cl)cc2)C1
pKi (Melanocortin receptor 4 [1]): 5.85

COCCN(C)Cc1ccccc1N1CCN(C(=O)[C@@H]2CN(C(C)C)C[C@H]2c2ccc(Cl)cc2)CC1
pKi (Melanocortin receptor 4 [1]): 6.49

CC(C)C[C@H](NC(=O)CCN(C)C)c1cc(C(F)(F)F)ccc1N1CCN(C(=O)[C@@H]2CN(C(C)C)C[C@H]2c2ccc(Cl)cc2)CC1
pKi (Melanocortin receptor 4 [1]): 8.00 | Intrinsic activity (Melanocortin receptor 4 [2]): 76% | pEC50 (Melanocortin receptor 4 [3]): 7.04

CNCC(=O)N[C@H](c1cccc(F)c1N1CCN(C(=O)[C@@H]2CN(C(C)C)C[C@H]2c2ccc(Cl)cc2)CC1)C(C)C
pKi (Melanocortin receptor 4 [1]): 7.96 | Intrinsic activity (Melanocortin receptor 4 [2]): 114% | pEC50 (Melanocortin receptor 4 [3]): 7.80

CC(C)N1C[C@@H](C(=O)N2CCN(c3ccccc3Cn3ccnn3)CC2)[C@H](c2ccc(Cl)cc2)C1
pKi (Melanocortin receptor 4 [1]): 6.38

CC(C)C[C@H](NC(=O)CN(C)C)c1cc(C(F)(F)F)ccc1N1CCN(C(=O)[C@@H]2CN(C(C)C)C[C@H]2c2ccc(Cl)cc2)CC1
pKi (Melanocortin receptor 4 [1]): 7.76 | Intrinsic activity (Melanocortin receptor 4 [2]): 99% | pEC50 (Melanocortin receptor 4 [3]): 7.28

Cc1ccc(N2CCN(C(=O)[C@@H]3CN(C(C)C)C[C@H]3c3ccc(Cl)cc3)CC2)c([C@@H](NC(=O)CN(C)C)C(C)C)c1
pKi (Melanocortin receptor 4 [1]): 8.15 | Intrinsic activity (Melanocortin receptor 4 [2]): 100% | pEC50 (Melanocortin receptor 4 [3]): 6.77

CC(C)N1C[C@@H](C(=O)N2CCN(c3ccccc3CN3CCN(C)CC3)CC2)[C@H](c2ccc(Cl)cc2)C1
pKi (Melanocortin receptor 4 [1]): 6.08

CC(C)N1C[C@@H](C(=O)N2CCN(c3ccccc3CN3CCCCC3)CC2)[C@H](c2ccc(Cl)cc2)C1
pKi (Melanocortin receptor 4 [1]): 6.02

CC(C)C[C@H](NC(=O)[C@@H](C)N)c1cc(C(F)(F)F)ccc1N1CCN(C(=O)[C@@H]2CN(C(C)C)C[C@H]2c2ccc(Cl)cc2)CC1
pKi (Melanocortin receptor 4 [1]): 8.31 | Intrinsic activity (Melanocortin receptor 4 [2]): 103% | pEC50 (Melanocortin receptor 4 [3]): 7.51

CC(C)C[C@H](NC(=O)CCN)c1cc(C(F)(F)F)ccc1N1CCN(C(=O)[C@@H]2CN(C(C)C)C[C@H]2c2ccc(Cl)cc2)CC1
pKi (Melanocortin receptor 4 [1]): 8.06 | Intrinsic activity (Melanocortin receptor 4 [2]): 95% | pEC50 (Melanocortin receptor 4 [3]): 8.34

CNCCNCc1ccccc1N1CCN(C(=O)[C@@H]2CN(C(C)C)C[C@H]2c2ccc(Cl)cc2)CC1
pKi (Melanocortin receptor 4 [1]): 6.57

CC(C)C[C@H](NC(=O)C1CNC1)c1cc(C(F)(F)F)ccc1N1CCN(C(=O)[C@@H]2CN(C(C)C)C[C@H]2c2ccc(Cl)cc2)CC1
pKi (Melanocortin receptor 4 [1]): 7.74 | Intrinsic activity (Melanocortin receptor 4 [2]): 80% | pEC50 (Melanocortin receptor 4 [3]): 8.18

Cc1ccc(N2CCN(C(=O)[C@@H]3CN(C(C)C)C[C@H]3c3ccc(Cl)cc3)CC2)c([C@H](C(C)C)N(C)C)c1
pKi (Melanocortin receptor 4 [1]): 7.89 | Intrinsic activity (Melanocortin receptor 4 [2]): 44%

CC(C)N1C[C@@H](C(=O)N2CCN(c3ccccc3Cn3ccnc3)CC2)[C@H](c2ccc(Cl)cc2)C1
pKi (Melanocortin receptor 4 [1]): 6.66 | Intrinsic activity (Melanocortin receptor 4 [2]): 52% | pEC50 (Melanocortin receptor 4 [3]): 6.49

CC(C)N1C[C@@H](C(=O)N2CCN(c3ccccc3Cn3cncn3)CC2)[C@H](c2ccc(Cl)cc2)C1
pKi (Melanocortin receptor 4 [1]): 6.49

Cc1cncn1Cc1ccccc1N1CCN(C(=O)[C@@H]2CN(C(C)C)C[C@H]2c2ccc(Cl)cc2)CC1
pKi (Melanocortin receptor 4 [1]): 6.60

CC(C)N1C[C@@H](C(=O)N2CCN(c3ccccc3CN3CCNCC3)CC2)[C@H](c2ccc(Cl)cc2)C1
pKi (Melanocortin receptor 4 [1]): 6.44

CNCC(=O)N[C@@H](CC(C)C)c1cc(C(F)(F)F)ccc1N1CCN(C(=O)[C@@H]2CN(C(C)C)C[C@H]2c2ccc(Cl)cc2)CC1
pKi (Melanocortin receptor 4 [1]): 8.11 | Intrinsic activity (Melanocortin receptor 4 [2]): 63% | pEC50 (Melanocortin receptor 4 [3]): 7.17

CC(C)[C@H](NC(=O)[C@@H](C)N)c1cccc(F)c1N1CCN(C(=O)[C@@H]2CN(C(C)C)C[C@H]2c2ccc(Cl)cc2)CC1
pKi (Melanocortin receptor 4 [1]): 8.36 | Intrinsic activity (Melanocortin receptor 4 [2]): 70% | pEC50 (Melanocortin receptor 4 [3]): 8.05

CC(C)C[C@H](NC(=O)CN)c1cc(C(F)(F)F)ccc1N1CCN(C(=O)[C@@H]2CN(C(C)C)C[C@H]2c2ccc(Cl)cc2)CC1
pKi (Melanocortin receptor 4 [1]): 8.05 | Intrinsic activity (Melanocortin receptor 4 [2]): 115% | pEC50 (Melanocortin receptor 4 [3]): 7.36

CC(C)N1C[C@@H](C(=O)N2CCN(c3ccccc3CN)CC2)[C@H](c2ccc(Cl)cc2)C1
pKi (Melanocortin receptor 4 [1]): 5.96

CC(C)[C@H](NC(=O)CCN)c1cccc(F)c1N1CCN(C(=O)[C@@H]2CN(C(C)C)C[C@H]2c2ccc(Cl)cc2)CC1
pKi (Melanocortin receptor 4 [1]): 7.89 | Intrinsic activity (Melanocortin receptor 4 [2]): 100% | pEC50 (Melanocortin receptor 4 [3]): 8.16

CC(C)N1C[C@@H](C(=O)N2CCN(c3ccccc3CN(C)C3CNC3)CC2)[C@H](c2ccc(Cl)cc2)C1
pKi (Melanocortin receptor 4 [1]): 6.62

CC(C)N1C[C@@H](C(=O)N2CCN(c3ccccc3C#N)CC2)[C@H](c2ccc(Cl)cc2)C1
pKi (Melanocortin receptor 4 [1]): 5.32

CC(C)C[C@H](N)c1cc(C(F)(F)F)ccc1N1CCN(C(=O)[C@@H]2CN(C(C)C)C[C@H]2c2ccc(Cl)cc2)CC1
pKi (Melanocortin receptor 4 [1]): 7.59 | Intrinsic activity (Melanocortin receptor 4 [2]): 94% | pEC50 (Melanocortin receptor 4 [3]): 5.96

CC(C)N1C[C@@H](C(=O)N2CCN(c3ccccc3CNC3CNC3)CC2)[C@H](c2ccc(Cl)cc2)C1
pKi (Melanocortin receptor 4 [1]): 6.28

CC(C)N1C[C@@H](C(=O)N2CCN(c3ccccc3CN(C)C)CC2)[C@H](c2ccc(Cl)cc2)C1
pKi (Melanocortin receptor 4 [1]): 5.92

CC(=O)N[C@H](c1cc(C)ccc1N1CCN(C(=O)[C@@H]2CN(C(C)C)C[C@H]2c2ccc(Cl)cc2)CC1)C(C)C
pKi (Melanocortin receptor 4 [1]): 7.33 | Intrinsic activity (Melanocortin receptor 4 [2]): 35%

CC(C)N1C[C@@H](C(=O)N2CCN(c3ccccc3C=O)CC2)[C@H](c2ccc(Cl)cc2)C1
pKi (Melanocortin receptor 4 [1]): 5.94

CC(C)CNCc1ccccc1N1CCN(C(=O)[C@@H]2CN(C(C)C)C[C@H]2c2ccc(Cl)cc2)CC1
pKi (Melanocortin receptor 4 [1]): 6.29

Cc1ccc(N2CCN(C(=O)[C@@H]3CN(C(C)C)C[C@H]3c3ccc(Cl)cc3)CC2)c([C@@H](N)C(C)C)c1
pKi (Melanocortin receptor 4 [1]): 7.92 | Intrinsic activity (Melanocortin receptor 4 [2]): 99% | pEC50 (Melanocortin receptor 4 [3]): 6.98

CC(C)[C@H](N)c1cccc(F)c1N1CCN(C(=O)[C@@H]2CN(C(C)C)C[C@H]2c2ccc(Cl)cc2)CC1
pKi (Melanocortin receptor 4 [1]): 7.68 | Intrinsic activity (Melanocortin receptor 4 [2]): 68% | pEC50 (Melanocortin receptor 4 [3]): 6.57

CC(C)CN(Cc1ccccc1N1CCN(C(=O)[C@@H]2CN(C(C)C)C[C@H]2c2ccc(Cl)cc2)CC1)C(=O)CCN
pKi (Melanocortin receptor 4 [1]): 6.35

Cc1nccn1Cc1ccccc1N1CCN(C(=O)[C@@H]2CN(C(C)C)C[C@H]2c2ccc(Cl)cc2)CC1
pKi (Melanocortin receptor 4 [1]): 6.55
